Assay results taken from PMC6795141 (RNA, 2019).

Key:
[1] = target: T1, PaTrmD (tRNA (m^1G37) methyltransferase TrmD, PA14_15990) (Pseudomonas aeruginosa, UniProt Q02RL6); test: ITC with refolded PaTrmD; format: binding
T1 sequence (Q02RL6 5-250): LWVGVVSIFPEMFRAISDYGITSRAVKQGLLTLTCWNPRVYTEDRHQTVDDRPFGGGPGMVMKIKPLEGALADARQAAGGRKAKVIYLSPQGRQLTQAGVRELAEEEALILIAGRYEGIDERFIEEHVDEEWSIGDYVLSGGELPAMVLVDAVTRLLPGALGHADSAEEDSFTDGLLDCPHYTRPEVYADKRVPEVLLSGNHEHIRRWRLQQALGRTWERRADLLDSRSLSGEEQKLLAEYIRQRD

[2] = target: T1, PaTrmD (tRNA (m^1G37) methyltransferase TrmD, PA14_15990); test: crystal structures; format: biochemical
[3] = target: T2, PaTrmD (refolded) (Pseudomonas aeruginosa PA14, UniProt Q02RL6 5-250); test: ITC
T2 sequence: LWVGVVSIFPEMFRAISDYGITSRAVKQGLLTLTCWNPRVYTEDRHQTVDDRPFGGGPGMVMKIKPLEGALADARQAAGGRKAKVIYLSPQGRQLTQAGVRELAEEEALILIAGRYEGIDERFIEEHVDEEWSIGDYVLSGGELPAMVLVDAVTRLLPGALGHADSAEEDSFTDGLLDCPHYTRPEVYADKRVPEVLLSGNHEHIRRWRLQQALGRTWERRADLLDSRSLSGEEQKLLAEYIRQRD

`C[S+](CC[C@H](N)C(=O)[O-])C[C@H]1O[C@@H](n2cnc3c(N)ncnc32)[C@H](O)[C@@H]1O` (stereo partly drawn) [SAM, S-adenosyl-L-methionine] was tested, and the Kd [1] was 14.4 ± 3.1 µM.

In the case of `Nc1ncnc2c1ncn2[C@@H]1O[C@H](C[C@@H](N)CC[C@H](N)C(=O)O)[C@@H](O)[C@H]1O` [SFG, sinefungin], the Ki [2] is reported as 0.41 ± 0.07 µM.

B1: tRNALeu(GAG) (structured_RNA)
RNA: GGGGCCGAGGUGGUGGAAUUGGUAGACACGCUACCUUGAGGUGGUAGUGGCCAUAGGCUGUAGGGGUUCGAGUCCCCUCCUCGGUACCA
modifications: none (unmodified transcript)
B1 gave a Kd [3] of 13.6 ± 3 µM.
